In PubChem BioAssay (NCI):
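Growth conditions: 96-well plates. Treatment: test compound, 48 hours, 5 concentrations. Analysis: linear interpolation between bracketing concentrations; unreached endpoints set to highest concentration. At the TGI there is no net growth.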

Key:
Test in all cases: NCI tumour cell line growth inhibition, 48 h
[1] = test system: 786-0 renal
[2] = test system: A498 renal
[3] = test system: A549 NSCLC
[4] = test system: ACHN renal
[5] = test system: CAKI-1 renal
[6] = test system: CCRF-CEM leukemia
[7] = test system: COLO 205 colon
[8] = test system: DLD-1 colon
[9] = test system: DMS 114 small cell lung
[10] = test system: DMS 273 small cell lung
[11] = test system: EKVX NSCLC
[12] = test system: HCC-2998 colon
[13] = test system: HCT-116 colon
[14] = test system: HCT-15 colon
[15] = test system: HL-60(TB) leukemia
[16] = test system: HOP-18 NSCLC
[17] = test system: HOP-62 NSCLC
[18] = test system: HOP-92 NSCLC
[19] = test system: HT29 colon
[20] = test system: IGROV1 ovarian
[21] = test system: K-562 leukemia
[22] = test system: KM12 colon
[23] = test system: KM20L2 colon
[24] = test system: LOX IMVI melanoma
[25] = test system: LXFL 529 NSCLC
[26] = test system: M14 melanoma
[27] = test system: M19-MEL melanoma
[28] = test system: MALME-3M melanoma
[29] = test system: MOLT-4 leukemia
[30] = test system: NCI-H226 lung
[31] = test system: NCI-H23 lung
[32] = test system: NCI-H460 lung
[33] = test system: NCI-H522 lung
[34] = test system: OVCAR-3 ovarian
[35] = test system: OVCAR-4 ovarian
[36] = test system: OVCAR-5 ovarian
[37] = test system: OVCAR-8 ovarian
[38] = test system: RPMI-8226 leukemia
[39] = test system: RXF 393 renal
[40] = test system: RXF-631 renal
[41] = test system: SF-268 CNS
[42] = test system: SF-295 CNS
[43] = test system: SF-539 CNS
[44] = test system: SK-MEL-2 melanoma
[45] = test system: SK-MEL-5 melanoma
[46] = test system: SK-OV-3 ovarian
[47] = test system: SN12C renal
[48] = test system: SNB-19 CNS
[49] = test system: SNB-75 CNS
[50] = test system: SNB-78 CNS
[51] = test system: SR leukemia
[52] = test system: SW-620 colon
[53] = test system: TK-10 renal
[54] = test system: U251 CNS
[55] = test system: UACC-257 melanoma
[56] = test system: UACC-62 melanoma
[57] = test system: UO-31 renal
[58] = test system: XF 498 CNS
[59] = test system: SK-MEL-28 melanoma

Measured: TGI

CCOCc1cc(=O)c2cc3c(cc2o1)OC(C)(C)CC3
> 100 µM: [1] | [2] | [3] | [4] | [5] | [6] | [7] | [8] | [9] | [10] | [11] | [12] | [13] | [14] | [15] | [16] | [17] | [18] | [19] | [20] | [21] | [22] | [23] | [24] | [25] | [26] | [27] | [28] | [29] | [30] | [31] | [32] | [33] | [34] | [35] | [36] | [37] | [38] | [39] | [40] | [41] | [42] | [43] | [44] | [45] | [46] | [47] | [48] | [49] | [50] | [51] | [52] | [53] | [54] | [55] | [56] | [57] | [58]

CCOC(=O)Cn1c(=O)[nH]c(=O)c2c1ncn2Cc1ccccc1
> 100 µM: [1] | [2] | [3] | [4] | [5] | [6] | [7] | [8] | [9] | [10] | [11] | [12] | [13] | [14] | [15] | [16] | [17] | [18] | [19] | [20] | [21] | [22] | [23] | [24] | [25] | [26] | [27] | [28] | [29] | [30] | [31] | [32] | [33] | [34] | [35] | [36] | [37] | [38] | [39] | [40] | [41] | [42] | [43] | [44] | [59] | [45] | [46] | [47] | [48] | [49] | [50] | [51] | [52] | [53] | [54] | [55] | [56] | [57] | [58]
